Test results from article PMC8187479, “Sugar phosphate activation of the stress sensor eIF2B” (Nature Communications, 2021).

Tests used:
[1] = biological target: T1, eIF2B decamer in eIF2Bα^V183F HEK293T lysate (Homo sapiens, UniProt P49770+Q14232+Q9UI10, V183F); experiment: Sucrose gradient centrifugation, eIF2B complex assembly, eIF2Bα V183F HEK293T lysate; assay type: biochemical; settings: 500 nM ISRIB, 200 μM F6P
T1 construct: endogenous in cells
Experimental: WT or eIF2Bα mutant HEK293T cells were harvested and lysed in 50 mM HEPES, 400 mM KCl, 1 mM DTT, 4 mM Mg(OAc)2, pH 7.5 + 0.5% Triton-X-100 + EDTA-free protease inhibitor cocktail (Roche) on ice for 30 min. Lysates were cleared by centrifugation at 48,000 × g, 4 °C for 30 min. 100 μL of each cleared lysate was loaded onto a 5–20% sucrose gradient prepared in a 13 × 51 mm ultracentrifuge tube using a Gradient Station (Biocomp) and centrifuged in a SW55 Ti rotor at 152,000 × g, 4 °C for 12 h. After centrifugation, 24 × 200 μL fractions were manually collected from the top to bottom of each gradient. Each fraction was subjected to methanol/chloroform precipitation and SDS-PAGE followed by Western Blot with the indicated antibodies. Blots were imaged on a ChemiDoc MP (Bio-Rad), and band intensities were quantified using the instrument’s Image Lab software. Each value was then divided by total intensity obtained across all fractions to determine percent enrichment of each subunit in each fraction.

[2] = biological target: T2, eIF2B in WT HEK293T lysate (Homo sapiens, UniProt P49770+Q14232+Q9UI10); experiment: GEF activity assay with WT HEK293T lysate; assay type: biochemical
T2 construct: endogenous in cells; host or cells: HEK293T (wild type) lysate
T2 sequence (Q14232 whole entry): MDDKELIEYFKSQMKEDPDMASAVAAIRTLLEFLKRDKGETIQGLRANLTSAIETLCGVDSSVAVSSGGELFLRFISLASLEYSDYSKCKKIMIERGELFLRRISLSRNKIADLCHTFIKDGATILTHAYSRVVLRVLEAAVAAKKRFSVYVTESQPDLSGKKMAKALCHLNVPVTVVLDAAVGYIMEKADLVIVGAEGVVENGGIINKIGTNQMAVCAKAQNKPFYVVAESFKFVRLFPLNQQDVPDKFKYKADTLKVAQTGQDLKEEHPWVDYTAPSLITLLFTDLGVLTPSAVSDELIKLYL
T2 sequence (P49770 whole entry): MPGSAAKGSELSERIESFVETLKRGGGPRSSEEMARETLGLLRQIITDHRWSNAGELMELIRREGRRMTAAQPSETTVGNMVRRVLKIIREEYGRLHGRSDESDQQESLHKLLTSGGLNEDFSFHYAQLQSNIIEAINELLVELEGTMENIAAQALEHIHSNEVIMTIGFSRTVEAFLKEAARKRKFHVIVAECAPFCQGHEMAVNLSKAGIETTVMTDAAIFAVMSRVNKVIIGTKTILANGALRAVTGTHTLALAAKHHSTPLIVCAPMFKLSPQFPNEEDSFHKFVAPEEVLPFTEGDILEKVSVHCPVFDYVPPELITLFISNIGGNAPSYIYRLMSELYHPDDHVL
T2 sequence (Q9UI10 whole entry): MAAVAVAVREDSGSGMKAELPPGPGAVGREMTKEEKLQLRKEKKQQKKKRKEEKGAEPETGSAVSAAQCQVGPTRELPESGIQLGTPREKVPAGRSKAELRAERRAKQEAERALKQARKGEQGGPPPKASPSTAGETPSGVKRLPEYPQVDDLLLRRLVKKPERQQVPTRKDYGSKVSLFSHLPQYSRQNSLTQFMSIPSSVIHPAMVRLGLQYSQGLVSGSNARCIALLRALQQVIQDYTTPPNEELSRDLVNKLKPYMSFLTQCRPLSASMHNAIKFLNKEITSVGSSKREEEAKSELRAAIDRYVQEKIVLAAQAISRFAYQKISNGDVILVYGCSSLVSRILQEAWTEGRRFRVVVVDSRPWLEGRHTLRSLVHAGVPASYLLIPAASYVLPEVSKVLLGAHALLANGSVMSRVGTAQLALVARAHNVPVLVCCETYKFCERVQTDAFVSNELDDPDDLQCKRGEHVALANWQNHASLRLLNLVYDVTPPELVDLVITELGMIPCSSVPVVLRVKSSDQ
T2 sequence (Q9NR50 whole entry partner): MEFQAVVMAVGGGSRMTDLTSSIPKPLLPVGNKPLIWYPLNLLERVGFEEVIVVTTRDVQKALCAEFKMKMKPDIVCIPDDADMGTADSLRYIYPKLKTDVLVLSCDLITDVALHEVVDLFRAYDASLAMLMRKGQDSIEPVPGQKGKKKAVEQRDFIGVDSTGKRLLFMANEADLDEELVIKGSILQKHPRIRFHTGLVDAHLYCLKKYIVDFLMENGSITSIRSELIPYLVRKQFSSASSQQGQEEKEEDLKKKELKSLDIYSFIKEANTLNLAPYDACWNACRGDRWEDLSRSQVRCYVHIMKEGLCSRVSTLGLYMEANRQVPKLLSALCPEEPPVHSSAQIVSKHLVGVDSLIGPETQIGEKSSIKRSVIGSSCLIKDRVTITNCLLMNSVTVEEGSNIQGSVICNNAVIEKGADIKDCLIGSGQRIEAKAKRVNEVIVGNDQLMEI
T2 sequence (Q13144 whole entry partner): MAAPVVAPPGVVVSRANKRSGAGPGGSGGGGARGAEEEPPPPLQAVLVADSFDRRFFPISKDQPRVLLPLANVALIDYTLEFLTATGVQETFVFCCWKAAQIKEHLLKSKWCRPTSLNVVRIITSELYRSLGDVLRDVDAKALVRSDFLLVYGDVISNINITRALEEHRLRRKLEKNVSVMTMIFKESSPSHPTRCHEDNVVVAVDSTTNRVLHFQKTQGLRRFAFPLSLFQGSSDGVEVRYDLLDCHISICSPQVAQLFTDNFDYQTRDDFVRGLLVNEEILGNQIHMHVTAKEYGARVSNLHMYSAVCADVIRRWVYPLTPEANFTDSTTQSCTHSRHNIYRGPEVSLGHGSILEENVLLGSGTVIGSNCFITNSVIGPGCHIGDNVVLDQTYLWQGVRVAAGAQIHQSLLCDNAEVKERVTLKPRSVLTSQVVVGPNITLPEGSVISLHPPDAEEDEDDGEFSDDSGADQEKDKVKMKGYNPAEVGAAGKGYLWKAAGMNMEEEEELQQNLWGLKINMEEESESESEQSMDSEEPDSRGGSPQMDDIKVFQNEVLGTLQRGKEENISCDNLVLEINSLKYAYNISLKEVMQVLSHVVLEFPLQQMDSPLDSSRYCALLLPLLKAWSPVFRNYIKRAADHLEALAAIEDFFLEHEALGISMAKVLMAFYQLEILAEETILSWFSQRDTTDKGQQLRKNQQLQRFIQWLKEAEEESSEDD
Experimental: Bodipy-FL-GDP-loaded eIF2 was used as a substrate for recombinant eIF2B. The assay was performed in 384-well plates. Reactions were read on a SpectraMax i3x plate reader (Molecular Devices) using the instrument’s Softmax Pro software with the following parameters: plate temperature = 25 °C; excitation wavelength = 485 nm (15 nm width); emission wavelength = 535 nm (25 nm width); read duration = 30 min at 45 s intervals. Data were analyzed in Prism. GDP release half-lives were calculated by fitting single-exponential decay curves.
For unbiased screening, MIDAS metabolite libraries at 10 mM stock concentration were dispensed into wells of the assay plate using an Echo Acoustic Liquid Handler (Labcyte). In a final assay volume of 10 μL/well, the following conditions were kept constant: 25 nM Bodipy-FL-GDP-loaded eIF2, 4 nM phospho-eIF2, 0.1 mM GDP, 1 mg/mL BSA, 1 nM eIF2B, 10 μM metabolite. A single well was run for each metabolite. For targeted experiments with recombinant wild-type and mutant eIF2Bα, the following conditions were used: 50 nM Bodipy-FL-GDP-loaded eIF2, 0.1 mM GDP, 1 mg/ml BSA, 20 nM eIF2B. For targeted experiments with HEK293T lysates, the following conditions were used: 50 nM Bodipy-FL-GDP-loaded eIF2, 0.1 mM GDP, 1 mg/ml BSA, 0.1 or 0.3 mg/ml lysates.

T1 sequence (Q14232 whole entry V183F): as the sequence (Q14232 whole entry) above, with V183F counted along it
T1 sequence (P49770 whole entry): as the sequence (P49770 whole entry) above
T1 sequence (Q9UI10 whole entry): as the sequence (Q9UI10 whole entry) above
T1 sequence (Q9NR50 whole entry partner): as the sequence (Q9NR50 whole entry partner) above
T1 sequence (Q13144 whole entry partner): as the sequence (Q13144 whole entry partner) above

In the case of `O=C(CO)[C@@H](O)[C@H](O)[C@H](O)COP(=O)(O)O` [F6P, fructose-6-phosphate], the eIF2B decamer formation [1] is reported as “promoted decamer formation at comparable levels” and the “effect on GEF activity of WT lysate” value [2] is reported as “stimulated”.
